Where two headings read alike, the source gives them in different places. One block for each compound: values may come before it.
How the values were obtained:
[1] = test system: sporadic triple negative breast cancer; details: cited from earlier work
[2] = test system: hereditary BRCA1/2-related breast cancer; details: cited from earlier work
[3] = test system: metastatic triple negative breast cancer; details: cited from earlier work
BT20 = test: growth inhibition assay, sensitivity to olaparib (SF50); assay type: cell-based, human
Method: (§1) Cells were exposed continuously to the inhibitor, and medium and inhibitor were replaced every four days. After 15 days, cells were fixed and stained with sulphorhodamine-B (Sigma, St. Louis, USA) and a colorimetric assay performed as described previously. Surviving fractions (SFs) were calculated and drug sensitivity curves determined with the Four Parameter Logistic Regression model as previously described. […] Nature 2005, 434(7035):917-921, Edwards S L, Brough R, Lord […], Boyd […], Ashworth A: […] Nature 2008, 451(7182):1111-1115]. […] Oncogene 30 (29):3222-3233. doi:10.1038/one.2011.421). A detailed description of the availability and preprocessing of all molecular data sets is provided below and [[…], et al., (2012) Subtype and pathway specific responses to anticancer compounds in breast cancer. […] These cells mirror many of the transcriptional and genomic characteristics of primary breast tumors and have been used to model responses to a large number of experimental and approved therapeutic compounds [Neve R M, Chin […], Clark L, Bayani N, Coppe J P, Tong F et al: A collection of breast cancer cell lines for the study of functionally distinct cancer subtypes. […] (2012) Subtype and pathway specific responses to anticancer compounds in breast cancer. […] Cell lines were divided into a group of 15 resistant and 7 sensitive cell lines, based on an SF50 threshold of 1 μM. […] Surviving fractions (SFs) were calculated and drug sensitivity curves determined with the Four Parameter Logistic Regression model as previously described [Farmer H, McCabe N, Lord C J, Tutt A N, Johnson D A, Richardson […], Dillon […], Knights C et al: Targeting the DNA repair defect in BRCA mutant cells as a therapeutic strategy. Nature 2005, 434(7035):917-921].\

BT474 = test: as above; assay type: cell-based, human
Method: as §1

BT549 = test: as above; assay type: cell-based, human
Method: as §1

CAMA1 = test: as above; assay type: cell-based, human
Method: as §1

HCC1143 = test: as above; assay type: cell-based, human
Method: as §1

HCC1428 = test: as above; assay type: cell-based, human
Method: as §1

HCC1954 = test: as above; assay type: cell-based, human
Method: as §1

HCC202 = test: as above; assay type: cell-based, human
Method: as §1

HCC38 = test: as above; assay type: cell-based, human
Method: as §1

HCC70 = test: as above; assay type: cell-based, human
Method: as §1

HS578T = test: as above; assay type: cell-based, human
Method: as §1

MCF7 = test: as above; assay type: cell-based, human
Method: as §1

MDAMB134VI = test: as above; assay type: cell-based, human
Method: as §1

MDAMB157 = test: as above; assay type: cell-based, human
Method: as §1

MDAMB231 = test: as above; assay type: cell-based, human
Method: as §1

MDAMB436 = test: as above; assay type: cell-based, human
Method: as §1

MDAMB453 = test: as above; assay type: cell-based, human
Method: as §1

MDAMB468 = test: as above; assay type: cell-based, human
Method: as §1

SKBR3 = test: as above; assay type: cell-based, human
Method: as §1

SUM149PT = test: as above; assay type: cell-based, human
Method: as §1

SUM159PT = test: as above; assay type: cell-based, human
Method: as §1

T47D = test: as above; assay type: cell-based, human
Method: as §1

[4] = test system: panel of 22 breast cancer cell lines; test: growth inhibition assay, whole panel (SF50); assay type: cell-based, human
Method: as §1

[5] = test system: BRCA1/2 mutation carriers; details: monotherapy; BRCA1/2 mutation carriers who had previously received several courses of chemotherapy; cited from earlier work
[6] = test system: carriers of a BRCA1/2 mutation and patients without known BRCA mutations; details: cited from earlier work
[7] = heavily pre-treated sporadic triple negative breast cancer
[8] = read-out: Olaparib SF50, continuous exposure 15 days, sulphorhodamine-B
[9] = read-out: olaparib SF50, Table 9

Compound: C[C@]1(c2nc3c(C(N)=O)cccc3[nH]2)CCCN1 [ABT-888]
activity of the combination with temozolomide [1, 7]: no evidence of activity
efficacy combined with DNA-damaging agent temozolomide [2]: efficacious

Compound: NC(=O)c1ccc(I)c([N+](=O)[O-])c1 [BSI-201]
survival, phase II clinical trial ([3]; combined with gemcitabine/carboplatin chemotherapy): dramatic survival advantage
confirmation in randomized, open-label phase III study ([3]; combined with gemcitabine/carboplatin): could not be confirmed

Compound: NC(=O)c1cccc2cn(-c3ccc([C@@H]4CCCNC4)cc3)nc12 [MK-4827]
efficacy as single agent [2]: efficacious

IC50 (BT20; [8]): > 50 µM
IC50 (BT20; [9]): > 50 µM
IC50 (BT474; [8]): 32 µM
IC50 (BT474; [9]): 32 µM
IC50 (BT549; [8]): 21.4 µM
IC50 (BT549; [9]): 21.4 µM
IC50 (HCC1143; [8]): 0.0211 µM
IC50 (HCC1143; [9]): 0.0211 µM
IC50 (HCC1428; [8]): > 50 µM
IC50 (HCC1428; [9]): > 50 µM
IC50 (HCC1954; [8]): 15.5 µM
IC50 (HCC1954; [9]): 15.5 µM
IC50 (HCC202; [8]): 0.413 µM
IC50 (HCC202; [9]): 0.413 µM
IC50 (HCC38; [8]): > 50 µM
IC50 (HCC38; [9]): > 50 µM
IC50 (MCF7; [8]): 14.7 µM
IC50 (MCF7; [9]): 14.7 µM
IC50 (MDAMB134VI; [8]): 30.9 µM
IC50 (MDAMB134VI; [9]): 30.9 µM
IC50 (MDAMB157; [8]): 2.41 µM
IC50 (MDAMB157; [9]): 2.41 µM
IC50 (MDAMB231; [8]): 30 µM
IC50 (MDAMB231; [9]): 30 µM
IC50 (MDAMB436; [8]): 0.00044 µM
IC50 (MDAMB436; [9]): 0.00044 µM
IC50 (MDAMB453; [8]): 0.00915 µM
IC50 (MDAMB453; [9]): 0.00915 µM
IC50 (MDAMB468; [8]): 0.514 µM
IC50 (MDAMB468; [9]): 0.514 µM
IC50 (SKBR3; [8]): > 50 µM
IC50 (SKBR3; [9]): > 50 µM
IC50 (T47D; [8]): 19.9 µM
IC50 (T47D; [9]): 19.9 µM
IC50 ([4]; 5 cell lines of the panel, read-out: SF50 not reached at the maximum treatment concentration): > 50 µM
Compound: O=C(c1cc(Cc2n[nH]c(=O)c3ccccc23)ccc1F)N1CCN(C(=O)C2CC2)CC1 [Olaparib]
IC50 (CAMA1; [8]): > 50 µM
IC50 (CAMA1; [9]): > 50 µM
IC50 (HCC70; [8]): 0.655 µM
IC50 (HCC70; [9]): 0.655 µM
IC50 (HS578T; [8]): 6.55 µM
IC50 (HS578T; [9]): 6.55 µM
IC50 (SUM149PT; [8]): 0.0161 µM
IC50 (SUM149PT; [9]): 0.0161 µM
IC50 (SUM159PT; [8]): 16.3 µM
IC50 (SUM159PT; [9]): 16.3 µM
IC50 ([4]; read-out: concentration of olaparib needed to reduce survival to 50% (SF50), lower end of the range, lowest SF50 among 22 breast cancer cell lines): 0.00044 µM
IC50 ([4]; read-out: concentration of olaparib needed to reduce survival to 50% (SF50), upper end of the range, highest SF50 reached among 22 breast cancer cell lines): 32 µM
objective response rates [5]: 41%
results as single agent [1, 7]: negative results
response to monotherapy, phase 2 trial ([1]; olaparib monotherapy, triple negative breast cancer patients): largely did not respond
efficacy as single agent [2]: efficacious
antitumor activity, phase 1 trial ([6]; BRCA1/2 mutation carriers vs patients without known BRCA mutations): has antitumor activity for the majority of carriers of a BRCA1/2 mutation but not for patients without known BRCA mutations
adverse effects, phase 1 trial ([6]; compared with conventional chemotherapy): only a few of the adverse effects of conventional chemotherapy

— patent publication US20140364434A1, “Biomarkers for Prediction of Response to PARP Inhibition in Breast Cancer” (The Regents of the University of Califonia, priority 2011, published 2014)
